Experimental data taken from US20110172147A1, “NEUROPEPTIDE-2 RECEPTOR (Y-2R) AGONISTS” (priority 2009, published 2011).

Experiments:
Format in all cases: cell-based
Y1R = biological target: T1, Y1R (Homo sapiens, UniProt P25929); assay: CaFlux Assay (FLIPR), Y1R
T1 sequence (P25929 1-384): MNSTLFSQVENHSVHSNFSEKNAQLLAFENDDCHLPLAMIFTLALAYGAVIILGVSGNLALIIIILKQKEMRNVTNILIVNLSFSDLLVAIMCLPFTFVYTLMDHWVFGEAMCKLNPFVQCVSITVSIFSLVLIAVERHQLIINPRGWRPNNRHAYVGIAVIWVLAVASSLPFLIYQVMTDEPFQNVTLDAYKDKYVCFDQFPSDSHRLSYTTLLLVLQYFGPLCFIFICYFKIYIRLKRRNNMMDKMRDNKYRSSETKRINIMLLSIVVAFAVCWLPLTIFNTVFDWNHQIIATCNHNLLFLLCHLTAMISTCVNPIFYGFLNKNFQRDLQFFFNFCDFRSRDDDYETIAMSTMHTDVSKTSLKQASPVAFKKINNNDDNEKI

Y5R = biological target: T2, Y5R (Homo sapiens, UniProt Q15761); assay: CaFlux Assay (FLIPR), Y5R
T2 sequence (Q15761 1-445): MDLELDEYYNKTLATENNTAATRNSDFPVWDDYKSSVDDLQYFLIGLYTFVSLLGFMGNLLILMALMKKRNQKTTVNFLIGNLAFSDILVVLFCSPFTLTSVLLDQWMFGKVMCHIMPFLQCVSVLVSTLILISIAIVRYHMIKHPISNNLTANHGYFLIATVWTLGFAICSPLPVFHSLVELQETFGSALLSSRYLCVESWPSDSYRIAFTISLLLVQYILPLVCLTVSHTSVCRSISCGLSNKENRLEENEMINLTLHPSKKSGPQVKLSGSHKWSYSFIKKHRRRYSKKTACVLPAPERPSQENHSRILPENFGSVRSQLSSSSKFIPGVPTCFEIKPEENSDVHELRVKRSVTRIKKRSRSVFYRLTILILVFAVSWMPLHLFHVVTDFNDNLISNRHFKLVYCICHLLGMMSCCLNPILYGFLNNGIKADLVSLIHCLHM

hNPY2R [1] = biological target: T3, hNPY2R (Homo sapiens, UniProt P49146); assay: cAMP Agonist Assay, HEK293/hNPY2R; parameters: expressed in transfected cells; host or cells: HEK293/hNPY2R (G418 selection)
T3 sequence (P49146 1-381): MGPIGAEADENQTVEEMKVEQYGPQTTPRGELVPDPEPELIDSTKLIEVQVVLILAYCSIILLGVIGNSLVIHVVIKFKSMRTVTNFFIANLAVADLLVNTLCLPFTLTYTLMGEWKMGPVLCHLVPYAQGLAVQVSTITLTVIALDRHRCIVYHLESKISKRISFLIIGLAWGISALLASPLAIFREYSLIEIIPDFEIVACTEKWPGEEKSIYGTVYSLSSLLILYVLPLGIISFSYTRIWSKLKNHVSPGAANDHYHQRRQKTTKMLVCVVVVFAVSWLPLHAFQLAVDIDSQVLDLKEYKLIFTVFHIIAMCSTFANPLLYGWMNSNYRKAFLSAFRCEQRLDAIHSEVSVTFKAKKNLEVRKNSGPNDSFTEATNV
Procedure, shortened: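 HEK293/hNPY2R cells (10,000/well, overnight) stimulated 30 min at room temperature with compound plus 5 μM forskolin and 0.5 mM IBMX (1.1% DMSO final). Lysate cAMP measured by competitive chemiluminescent ELISA (AP conjugate, CSPD substrate); quadruplicates.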

Y4R = Y4R (Homo sapiens, UniProt P50391); assay: CaFlux Assay (FLIPR), Y4R
Sequence of Y4R (P50391 whole entry): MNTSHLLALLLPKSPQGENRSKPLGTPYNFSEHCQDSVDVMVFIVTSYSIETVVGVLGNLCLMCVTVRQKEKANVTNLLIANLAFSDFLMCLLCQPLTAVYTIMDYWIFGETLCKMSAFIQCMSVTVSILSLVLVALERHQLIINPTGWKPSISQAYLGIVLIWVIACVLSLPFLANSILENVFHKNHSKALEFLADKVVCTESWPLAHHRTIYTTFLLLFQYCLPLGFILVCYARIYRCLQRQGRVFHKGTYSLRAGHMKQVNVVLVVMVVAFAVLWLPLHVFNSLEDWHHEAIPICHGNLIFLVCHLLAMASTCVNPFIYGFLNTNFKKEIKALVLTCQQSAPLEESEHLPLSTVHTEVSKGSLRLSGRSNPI

hNPY2R [2] = biological target: T3, hNPY2R; assay: CaFlux Assay (FLIPR), Y2R; parameters: expressed in transfected cells; host or cells: HEK-293 stably transfected with G protein chimera Gαqi9
Procedure, shortened: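 Intracellular calcium mobilisation was measured in HEK-293 cells engineered with Gαqi9 and the relevant receptor; responses were normalised as % of maximal positive-control signal.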

## CCCCCCCCCCCCCCCCCCCC(=O)N[C@@H](CCC(=O)N[C@@H](CCC(=O)NCCCC[C@H](NC(=O)[C@@H](NC(=O)COCCOCCOC)[C@@H](C)CC)C(=O)N1CCN(c2ccc3ncn(CC(=O)N[C@@H](CCCNC(=N)N)C(=O)N[C@@H](Cc4c[nH]cn4)C(=O)N[C@@H](Cc4ccc(O)cc4)C(=O)N[C@@H](CC(C)C)C(=O)N[C@@H](CC(N)=O)C(=O)N[C@@H](Cc4c[nH]c5ccccc45)C(=O)N[C@H](C(=O)N[C@H](C(=O)N[C@@H](CCCNC(=N)N)C(=O)N[C@@H](CCC(N)=O)C(=O)N(C)[C@@H](CCCNC(=N)N)C(=O)N[C@@H](Cc4ccc(O)cc4)C(N)=O)[C@@H](C)O)C(C)C)c(=O)c3c2)CC1)C(=O)O)C(=O)O [Example 22]
Y1R
  EC50: > 6 µM
Y5R
  EC50: 1510 nM
hNPY2R [1]
  EC50: 0.065 nM
Y4R
  EC50: > 6 µM
hNPY2R [2]
  EC50: 0.298 nM

## CCCCCCCCCCCCCCCCCCCC(=O)N[C@@H](CCC(=O)N[C@@H](CCC(=O)NCCCC[C@H](NC(=O)[C@@H](NC(=O)CCOCCOCCOCCOCCOCCOCCOCCOC)[C@@H](C)CC)C(=O)N1CCN(c2ccc3ncn(CC(=O)N[C@@H](CCCNC(=N)N)C(=O)N[C@@H](Cc4c[nH]cn4)C(=O)N[C@@H](Cc4ccc(O)cc4)C(=O)N[C@@H](CC(C)C)C(=O)N[C@@H](CC(N)=O)C(=O)N[C@@H](Cc4c[nH]c5ccccc45)C(=O)N[C@H](C(=O)N[C@H](C(=O)N[C@@H](CCCNC(=N)N)C(=O)N[C@@H](CCC(N)=O)C(=O)N(C)[C@@H](CCCNC(=N)N)C(=O)N[C@@H](Cc4ccc(O)cc4)C(N)=O)[C@@H](C)O)C(C)C)c(=O)c3c2)CC1)C(=O)O)C(=O)O [Example 23]
Y1R
  EC50: > 9 µM
Y5R
  EC50: 2210 nM
hNPY2R [1]
  EC50: 0.05 nM
Y4R
  EC50: > 9 µM
hNPY2R [2]
  EC50: 0.295 nM

## CCCCCCCCCCCCCCCCCCCC(=O)N[C@@H](CCC(=O)N[C@@H](CCC(=O)NCCCC[C@H](NC(=O)[C@@H](NC(=O)CCOCCOCCOCCOCCOCCOCCOCCOCCOCCOCCOCCOCCOCCOCCOCCOC)[C@@H](C)CC)C(=O)N1CCN(c2ccc3ncn(CC(=O)N[C@@H](CCCNC(=N)N)C(=O)N[C@@H](Cc4c[nH]cn4)C(=O)N[C@@H](Cc4ccc(O)cc4)C(=O)N[C@@H](CC(C)C)C(=O)N[C@@H](CC(N)=O)C(=O)N[C@@H](Cc4c[nH]c5ccccc45)C(=O)N[C@H](C(=O)N[C@H](C(=O)N[C@@H](CCCNC(=N)N)C(=O)N[C@@H](CCC(N)=O)C(=O)N(C)[C@@H](CCCNC(=N)N)C(=O)N[C@@H](Cc4ccc(O)cc4)C(N)=O)[C@@H](C)O)C(C)C)c(=O)c3c2)CC1)C(=O)O)C(=O)O [Example 25]
Y1R
  EC50: > 9 µM
Y5R
  EC50: 2580 nM
  Y5R FLIPR agonist character (partial agonist mark): P.A
hNPY2R [1]
  EC50: 0.09 nM
Y4R
  EC50: > 9 µM
hNPY2R [2]
  EC50: 0.14 nM

## CCCCCCCCCCCCCCCCCCCC(=O)N[C@@H](CCC(=O)N[C@@H](CCC(=O)NCCCC[C@H](NC(=O)[C@@H](NC(=O)CCOCCOCCOCCOCCOCCOCCOCCOCCOCCOCCOCCOCCOCCOCCOCCOCCOCCOCCOCCOCCOCCOCCOCCOC)[C@@H](C)CC)C(=O)N1CCN(c2ccc3ncn(CC(=O)N[C@@H](CCCNC(=N)N)C(=O)N[C@@H](Cc4c[nH]cn4)C(=O)N[C@@H](Cc4ccc(O)cc4)C(=O)N[C@@H](CC(C)C)C(=O)N[C@@H](CC(N)=O)C(=O)N[C@@H](Cc4c[nH]c5ccccc45)C(=O)N[C@H](C(=O)N[C@H](C(=O)N[C@@H](CCCNC(=N)N)C(=O)N[C@@H](CCC(N)=O)C(=O)N(C)[C@@H](CCCNC(=N)N)C(=O)N[C@@H](Cc4ccc(O)cc4)C(N)=O)[C@@H](C)O)C(C)C)c(=O)c3c2)CC1)C(=O)O)C(=O)O [Example 26]
Y1R
  EC50: > 9 µM
Y5R
  EC50: 1920 nM
  Y5R FLIPR agonist character (partial agonist mark): P.A
hNPY2R [1]
  EC50: 0.1 nM
Y4R
  EC50: > 9 µM
hNPY2R [2]
  EC50: 0.01 nM
